These results are taken from patent EP0291663A2, “Tert.-butyl amino-3-(phenyl-2'-phenoxy)-1-propanol-2 for the control of heart arrhythmia” (priority 1987, dated 1988).

Where a name gives a salt, the structure may show the parent alone.

A short description of one data set: in vivo. The following applies: rat.
The test system of a further data set is ventrikuläre Arrhythmien. It counts as in vivo, Hund. The following applies: dog. An excerpt:
Dies wird auch durch in vivo Experimente bestätigt. Die antiarrhythmische Wirksamkeit der Verbindung wurde an Hunden nach H. Glücker et al., Arzneim.Forsch. (Drug Ros.) Bd. 35 (II), 9 (1985) S.1387-1393 geprüft. Die […] wurde mindestens 2 Stunden lang occludiert. Nach dem Auftreten konstanter […] die Verbindungen intravenös injiziert.

The subject of data set [1] is Meerschweinchen-Papillarmuskel. As to the kind of experiment: Contraction of isolated guinea pig papillary muscle (safety factor, negative inotropy). Format: cell-based. Conditions: for Sf (Sicherheitsfaktor): Rate Factor von Vmax × (C20 CF/C20 Vmax). An excerpt:
(§1) Überraschenderweise wurde gefunden, daß das tert.-Butylamino-3-(phenyl-2ʹ-phenoxy)-1-propanol 2 ("Bipranol") der Formel [drawing 1] und seine Salze mit Säuren keine β-sympatholytische Wirkung, sondern eine starke antiarrhythmische Wirkung besitzen. Die elektrophysiologischen und hämodynamischen Wirkungen wurden in vitro an zwei verschiedenen isolierten Herzpräparaten und in vivo (Hund) experimentell untersucht. In Tabelle I sind Ergebnisse pharmakologischer Untersuchungen mit Diprafenon, Propafenon und Bipranol zusammengefaßt.
(§2) C20 Vmax: Konzentration, die Vmax bei einer Zykluslänge von 1000 mSek. um 20 % verringert. C20 CF: Konzentration, die die Kontraktion des Papillarmuskels um 20 % verringert. Rate Factor von Vmax: (% des Kontrollwertes Vmax bei einer Zykluslänge von 2000 mSek.)/(% des Kontrollwertes Vmax bei einer Zykluslänge von 500 mSek.) bei C20Vmax. C20APD95: Die Konzentration, die das APD95 des normalen Aktionspotentials um 20 % verlängert. Sf : Sicherheitsfaktor, errechnet als Rate Factor von Vmax × (C20 CF/C20 Vmax).

In data set [2] the test system is Meerschweinchen-Vorhofmuskel. As to the kind of experiment: Antagonism of the positive inotropic effect of adrenaline on isolated guinea pig atrial muscle. Format: cell-based. Conditions: highest test concentration 30 µMol. Here is the method:
(§3) In in vitro-Experimenten an isolierten Herzpräparaten lag die leistungsverzögernde und damit antiarrhythmische Wirkung (C20 Vmax) bei einer Dosis von 2,2 µMol Bipranol. Diese Dosierung entspricht einer antiarrhythmischen wirksamen Dosis von etwa 3 mg/kg bei in vivo Versuchen an Hunden. […] Diese Konzentration ist ungefähr 14 mal höher als für eine antiarrhythmische Wirkung gebraucht wird.

The next data set has as its system β-Rezeptor. Format: in vivo, Hund. An excerpt:
Als Parameter zur Bestimmung der β-Rezeptor-blockierenden Wirkung am narkotisierten Hund dienten dP/dt als Maß für die Kontraktionskraft des Herzens, sowie cardiac output (Herzzeitvolumen). […] Im Gegensatz wirken β-Blocker immer negativ-inotrop. […] Die Beobachtungen bei dieser Dosis sind wahrscheinlich Folge einer nicht spezifischen toxischen Wirkung und beruhen nicht auf einer β-sympatolytischen Wirkung.

A further data set has as its system Hunde-Purkinye Fasern. As to the kind of experiment: Electrophysiology on isolated dog Purkinje fibres (Vmax, action potential duration). Format: cell-based, Hund. Conditions: for Rate Factor von Vmax: (% of control Vmax at cycle length 2000 mSek.)/(% of control Vmax at cycle length 500 mSek.) at C20Vmax.
Text: as §1, §2, §3

Where [3] appears, read: anaesthetised dog, up to 30 mg/kg.
[4] abbreviates: concentration that prolongs APD95 of the normal action potential by 20 %.

`CC(C)(C)NCC(O)COc1ccccc1-c1ccccc1` (centres unmarked) [Bipranol HCl, tert.-Butylamino-3-(phenyl-2ʹ-phenoxy)-1-propanol-2]: the LD50 (commonly the dose expected to kill half of the subjects tested) in “in vivo” (Ratte (iv)) was found to be 11 mg/kg; in the data set “in vivo” (Ratte (oral)), 571 mg/kg.

Regarding `CC(C)(C)NCC(O)COc1ccccc1-c1ccccc1` (centres unmarked) [Bipranol, tert.-Butylamino-3-(phenyl-2ʹ-phenoxy)-1-propanol-2], in the data set with ventrikuläre Arrhythmien (i.v., 1,6 mg/kg followed by 50 µg/kg/min), the “Reduktion der ventrikulären Extrazystolen” value is over 90%. For the same compound, in data set [1], the “negativ-inotrope Nebenwirkung” value is “keine nennenswerte negativ-inotrope Nebenwirkung” and the “Sf (Sicherheitsfaktor)” value was 9,09. The “Abschwächung der positiv-inotropen Wirkung von 1 µMol Adrenalin” value in data set [2] is listed as “geringe Abschwächung”. Further, in the data set on β-Rezeptor (setting [3]), the “cardiac output (Herzzeitvolumen)” value is reported as “nicht beeinflußt” and the “dP/dt (Kontraktionskraft des Herzens)” value is “keine negativ-inotrope Wirkung”. For the same compound, in the data set on β-Rezeptor (in vivo, iv, 30 mg/kg), the Mortality result is recorded as “starben alle Hunde”. Also, the “Rate Factor von Vmax” value with Hunde-Purkinye Fasern is recorded as 5. The IC20 in the data set on Hunde-Purkinye Fasern (Canis lupus familiaris, purkinje, concentration that reduces Vmax by 20 % at cycle length 1000 mSek., isolated heart preparations, read-out: C20 Vmax) was 2.2 µM. In the data set on Hunde-Purkinye Fasern (purkinje, concentration that prolongs APD95 of the normal action potential by 20 %, read-out: C20APD95), the EC20 is 7.2 µM.

Regarding `CCC(C)(C)NCC(O)COc1ccccc1C(=O)CCc1ccccc1` (centres unmarked) [Diprafenon], in data set [1], the “negativ-inotrope Nebenwirkung” value was “deutlich negativer inotroper Effekt” and the “Sf (Sicherheitsfaktor)” value is reported as 4,86. In the data set with Hunde-Purkinye Fasern, the “Rate Factor von Vmax” value is listed as 1,19. Also, the C20APD95 result in the data set on Hunde-Purkinye Fasern (setting [4]) is given as “nicht erreicht”.

For `O=C(NCC1CCCCN1)c1cc(OCC(F)(F)F)ccc1OCC(F)(F)F` (centres unmarked) [Flecainid, reference compound], the “therapeutische Dosierung” value in the data set on ventrikuläre Arrhythmien (i.v., followed by 50 µg/kg/min) is recorded as 2,4 mg/kg.

Turning to `CCCNCC(O)COc1ccccc1C(=O)CCc1ccccc1` (centres unmarked) [Propafenon], in data set [1], the “Sf (Sicherheitsfaktor)” value is recorded as 1,55. Also, the “Rate Factor von Vmax” value in the data set with Hunde-Purkinye Fasern is 1,08. For the same compound, in the data set on Hunde-Purkinye Fasern (setting [4]), the C20APD95 entry was “nicht erreicht”.
